In one test the target is T1, PARP-1 (Homo sapiens, UniProt P09874).
T1 construct: purchased Enzo Life Sciences GmbH, Lörrach, Germany
Kind of test: PARP-1 autoparsylation assay (HTRF). The note with it: His-tagged Parp-1, autoparsylation HTRF. It is filed as biochemical. In outline:
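His-tagged enzyme auto-modifies itself using biotinylated NAD/NAD; product detected by TR-FRET between cryptate anti-His antibody and Xlent-streptavidin, as emission ratio.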
Background: TR-FRET usually uses a lanthanide donor and a delayed reading to cut background.

The next test concerns the target T2, TNKS1 (Homo sapiens, UniProt O95271).
T2 construct: GST-tagged Tnks-1 (1023-1327 aa, prepared in-house); made in house
Kind of test: TNKS1 activity ELISA (autoparsylation assay). It is filed as biochemical. The settings on record: GST-tagged Tnks-1 (1023-1327 aa). In outline:
(§1)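 GST-tagged TNKS1 or TNKS2 captured on glutathione plates and allowed to auto-PARsylate with biotinylated NAD with or without compound. Biotin-ADP-ribosylated enzyme detected by streptavidin-HRP and luminescence; IC50 relative to inhibitor-free reaction.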
For orientation: In an ELISA, binding on a coated surface is turned into a signal by an enzyme label.

The next test has as its target T3, TNKS2 (Homo sapiens, UniProt Q9H2K2).
T3 construct: GST-tagged Tnks-2 (873-1166 aa, prepared in-house); made in house
In words: TNKS2 activity ELISA (autoparsylation assay). It is filed as biochemical. The settings on record: GST-tagged Tnks-2 (873-1166 aa); read-out: IC50 [M] TNKS2 ELISA. In outline: as §1

Another test relates to Tankyrases. The settings on record: read-out: EC50 [M] TNKS cellular assay; DLD1 cells, 24 hours, Axin2 increase.

Structures can show the parent of a compound that is named as a salt. Some results are limits rather than exact numbers.

For orientation: IC50 means the concentration that inhibits the measured activity by half. One may read the EC50 as the concentration that produces a half-maximal response.

T3 sequence (Q9H2K2 873-1166): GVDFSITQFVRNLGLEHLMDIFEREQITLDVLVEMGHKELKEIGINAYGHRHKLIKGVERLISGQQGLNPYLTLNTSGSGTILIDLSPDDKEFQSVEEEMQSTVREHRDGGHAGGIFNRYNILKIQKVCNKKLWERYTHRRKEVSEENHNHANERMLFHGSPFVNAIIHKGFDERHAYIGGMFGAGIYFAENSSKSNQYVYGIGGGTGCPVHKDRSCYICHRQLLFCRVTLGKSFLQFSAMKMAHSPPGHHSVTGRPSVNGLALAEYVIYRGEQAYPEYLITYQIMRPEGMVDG
T2 sequence (O95271 1023-1327): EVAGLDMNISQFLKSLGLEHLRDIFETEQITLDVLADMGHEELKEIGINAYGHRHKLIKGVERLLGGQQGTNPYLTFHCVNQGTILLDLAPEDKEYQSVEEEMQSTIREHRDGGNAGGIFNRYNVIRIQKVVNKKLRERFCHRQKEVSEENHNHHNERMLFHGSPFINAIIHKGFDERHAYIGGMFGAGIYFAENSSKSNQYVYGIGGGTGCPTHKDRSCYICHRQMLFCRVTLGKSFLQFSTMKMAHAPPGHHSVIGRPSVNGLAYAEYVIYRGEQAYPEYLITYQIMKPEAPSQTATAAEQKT
T1 sequence (P09874 whole entry): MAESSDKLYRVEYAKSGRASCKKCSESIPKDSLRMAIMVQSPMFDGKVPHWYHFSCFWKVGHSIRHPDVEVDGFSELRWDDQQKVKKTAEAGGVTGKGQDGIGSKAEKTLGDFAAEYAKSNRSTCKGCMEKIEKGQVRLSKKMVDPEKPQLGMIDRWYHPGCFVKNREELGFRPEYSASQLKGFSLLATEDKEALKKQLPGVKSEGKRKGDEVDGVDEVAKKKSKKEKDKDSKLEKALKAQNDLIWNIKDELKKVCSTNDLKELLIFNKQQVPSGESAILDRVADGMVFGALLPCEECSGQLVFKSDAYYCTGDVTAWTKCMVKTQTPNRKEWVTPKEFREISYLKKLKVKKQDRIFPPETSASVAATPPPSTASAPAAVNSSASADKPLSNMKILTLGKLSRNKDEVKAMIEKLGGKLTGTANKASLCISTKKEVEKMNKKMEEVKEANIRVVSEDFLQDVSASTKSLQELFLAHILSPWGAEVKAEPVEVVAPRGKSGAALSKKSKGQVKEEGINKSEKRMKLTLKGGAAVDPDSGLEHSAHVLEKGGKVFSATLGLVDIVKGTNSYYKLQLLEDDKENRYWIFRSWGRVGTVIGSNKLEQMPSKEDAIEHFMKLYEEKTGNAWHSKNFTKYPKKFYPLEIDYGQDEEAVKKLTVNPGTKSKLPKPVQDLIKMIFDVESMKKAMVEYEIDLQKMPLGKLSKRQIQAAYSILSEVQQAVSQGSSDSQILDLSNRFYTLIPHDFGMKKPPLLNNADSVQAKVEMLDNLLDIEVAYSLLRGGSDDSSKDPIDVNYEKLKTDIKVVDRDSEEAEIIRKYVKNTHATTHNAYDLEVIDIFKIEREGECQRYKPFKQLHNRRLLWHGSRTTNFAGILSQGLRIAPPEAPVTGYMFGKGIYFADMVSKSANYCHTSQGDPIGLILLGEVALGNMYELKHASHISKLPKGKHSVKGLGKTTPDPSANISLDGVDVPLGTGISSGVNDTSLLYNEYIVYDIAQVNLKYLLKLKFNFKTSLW

`Cc1ncc2c(=O)[nH]c(CCCC(=O)N3CCC(C(=O)c4cnn(C)c4)CC3)cn12` [Compound C105, 3-Methyl-6-{4-[4-(1-methyl-1H-pyrazole-4-carbonyl)-piperidin-1-yl]-4-oxo-butyl}-7H-imidazo[1,5-a]pyrazin-8-one]: the IC50 amounted to 29000 nM against PARP-1, 0.43 nM at TNKS1 and 5.7e-10 M at TNKS2. In addition, the EC50 in the test with Tankyrases worked out at 3.9e-07 M.
Take `COc1ccc(C(=O)C2CCN(C(=O)CCCc3nc4c(C)scc4c(=O)[nH]3)CC2)cc1F` [Compound C113, 2-{4-[4-(3-Fluoro-4-methoxy-benzoyl)-piperidin-1-yl]-4-oxo-butyl}-7-methyl-3H-thieno[3,4-d]pyrimidin-4-one]: the IC50 turned out to be 29000 nM against PARP-1, 0.38 nM against TNKS1 and 2.4e-10 M at TNKS2. In the test with Tankyrases, the EC50 is 2.6e-09 M.
Take `Cc1scc2c(=O)[nH]c(CCCC(=O)N3CCC(c4cnc(N)c(C#N)c4)CC3)nc12` [Compound C115, 6-Amino-1′-[4-(7-methyl-4-oxo-3,4-dihydro-thieno[3,4-d]pyrimidin-2-yl)-butyryl]-1′,2′,3′,4′,5′,6′-hexahydro-[3,4′]bipyridinyl-5-carbonitrile trifluoroacetate]: the IC50 at PARP-1 worked out at 570 nM; against TNKS1, 0.98 nM; at TNKS2, 1.3e-09 M. In the test with Tankyrases, the EC50 was 4.9e-08 M.
Consider `Cc1scc2c(=O)[nH]c(CCCC(=O)N3CCC(c4cnc(N)c(-c5ncccn5)c4)CC3)nc12` [Compound C116, 2-[4-(6-Amino-5-pyrimidin-2-yl-3′,4′,5′,6′-tetrahydro-2′H-[3,4′]bipyridinyl-1′-yl)-4-oxo-butyl]-7-methyl-3H-thieno[3,4-d]pyrimidin-4-one], for which the IC50 against PARP-1 was found to be 970 nM; against TNKS1, 0.37 nM; on TNKS2, 2.1e-10 M. In the test on Tankyrases, the EC50 was determined as 3.6e-09 M.
The matching figures for `Cc1scc2c(=O)[nH]c(CCCC(=O)N3CCC(c4nnc(-c5ccccc5)o4)CC3)nc12` [Compound C117, 7-Methyl-2-{4-oxo-4-[4-(5-phenyl-[1,3,4]oxadiazol-2-yl)-piperidin-1-yl]-butyl}-3H-thieno[3,4-d]pyrimidin-4-one]: 820 nM, 8.2 nM, 5.7e-09 M and 1.3e-07 M.
Consider `Cc1scc2c(=O)[nH]c(CCCC(=O)N3CCC(Oc4ccc(C#N)cc4)CC3)nc12` [Compound C118, 4-{1-[4-(7-Methyl-4-oxo-3,4-dihydro-thieno[3,4-d]pyrimidin-2-yl)-butyryl]-piperidin-4-yloxy}-benzonitrile], for which the values for the IC50 against PARP-1, against TNKS1 and at TNKS2 were 850 nM, 110 nM and 8.9e-08 M, respectively. The EC50 with Tankyrases is 9.1e-07 M.
Regarding `Cc1scc2c(=O)[nH]c(CCCC(=O)N3CCC(C(=O)c4ccc(F)cc4)CC3)nc12` [Compound C119, 2-{4-[4-(4-Fluoro-benzoyl)-piperidin-1-yl]-4-oxo-butyl}-7-methyl-3H-thieno[3,4-d]pyrimidin-4-one], the IC50 on PARP-1 was 850 nM; against TNKS1, 0.9 nM; at TNKS2 it was 6.2e-10 M. In addition, the EC50 in the test with Tankyrases came out at 3.3e-08 M.
Regarding `Cc1scc2c(=O)[nH]c(CCCC(=O)N3CCC(C(=O)c4ccc(C(C)(C)O)cc4)CC3)nc12` [Compound C121, 2-(4-{4-[4-(1-Hydroxy-1-methyl-ethyl)-benzoyl]-piperidin-1-yl}-4-oxo-butyl)-7-methyl-3H-thieno[3,4-d]pyrimidin-4-one], the IC50 amounted to 3100 nM on PARP-1, 4.7 nM against TNKS1 and 2.4e-09 M at TNKS2. Also, in the test on Tankyrases, the EC50 was found to be 6.8e-08 M.
The matching figures for `Cc1scc2c(=O)[nH]c(CCCC(=O)N3CCC(C(=O)c4cnn(C)c4)CC3)nc12` [Compound C123, 7-Methyl-2-{4-[4-(1-methyl-1H-pyrazole-4-carbonyl)-piperidin-1-yl]-4-oxo-butyl}-3H-thieno[3,4-d]pyrimidin-4-one]: 1200 nM, 0.67 nM, 5.7e-10 M and 3.4e-09 M.
Consider `COc1ccc(C(=O)C2CCN(C(=O)CCCc3nc4c(C)csc4c(=O)[nH]3)CC2)cn1` [Compound C126, 2-{4-[4-(6-Methoxypyridine-3-carbonyl)-1-piperidyl]-4-oxo-butyl}-7-methyl-3H-thieno[3,2-d]pyrimidin-4-one], for which the IC50 against PARP-1 was 560 nM; at TNKS1 it was 0.23 nM; at TNKS2, 1.6e-10 M. For the same molecule, in the test on Tankyrases, the EC50 is 1.3e-08 M.
`Cc1csc2c(=O)[nH]c(CCCC(=O)N3CCC(c4cnc(N)c(-c5ncccn5)c4)CC3)nc12` [Compound C128, 2-{4-[4-(6-Amino-5-pyrimidin-2-yl-3-pyridyl)-1-piperidyl]-4-oxo-butyl}-7-methyl-3H-thieno[3,2-d]pyrimidin-4-one]: the IC50 on PARP-1 turned out to be 230 nM; at TNKS1 it was 0.11 nM; on TNKS2 it was 7.9e-10 M. For the same molecule, the concentration giving a half-maximal response (EC50) in the test with Tankyrases was 3.3e-09 M.
With `Cc1csc2c(=O)[nH]c(CCCC(=O)N3CCC(Oc4ccc(C#N)cc4)CC3)nc12` [Compound C130, 4-{{1-[4-(7-Methyl-4-oxo-3H-thieno[3,2-d]pyrimidin-2-yl)butanoyl]-4-piperidyl}-oxy}benzonitrile], the IC50 at PARP-1 worked out at 320 nM; on TNKS1 it was 50 nM; at TNKS2 it was 2.1e-08 M. Besides, in the test with Tankyrases, the EC50 is 3.3e-08 M.
As for `Cc1csc2c(=O)[nH]c(CCCC(=O)N3CCC(C(=O)c4ccc(F)cc4)CC3)nc12` [Compound C131, 2-{4-[4-(4-Fluorobenzoyl)-1-piperidyl]-4-oxo-butyl}-7-methyl-3H-thieno[3,2-d]pyrimidin-4-one], the figures for the IC50 at PARP-1, on TNKS1 and at TNKS2 were 270 nM, 0.36 nM and 2.1e-10 M, respectively. In addition, in the test on Tankyrases, the EC50 is 1.6e-08 M.
The matching figures for `COc1ccc(C(=O)C2CCN(C(=O)CCCc3nc4c(C)csc4c(=O)[nH]3)CC2)cc1C` [Compound C132, 2-{4-[4-(4-Methoxy-3-methyl-benzoyl)-1-piperidyl]-4-oxo-butyl}-7-methyl-3H-thieno[3,2-d]pyrimidin-4-one]: 440 nM, less than 0.1 nM, 1.1e-10 M and 7.7e-10 M.
On to `Cc1csc2c(=O)[nH]c(CCCC(=O)N3CCC(C(=O)c4ccc(C(C)(C)O)cc4)CC3)nc12` [Compound C133, 2-{4-{4-[4-(1-Hydroxy-1-methyl-ethyl)benzoyl]-1-piperidyl}-4-oxo-butyl}-7-methyl-3H-thieno[3,2-d]pyrimidin-4-one], for which the IC50 on PARP-1 is 1000 nM; on TNKS1 it was 2.1 nM; at TNKS2, 7.5e-10 M. Further, in the test on Tankyrases, the EC50 was found to be 6.4e-08 M.
The corresponding values for `Cc1csc2c(=O)[nH]c(CCCC(=O)N3CCC(C(=O)c4cnn(C)c4)CC3)nc12` [Compound C135, 7-Methyl-2-{4-[4-(1-methyl-1H-pyrazole-4-carbonyl)-piperidin-1-yl]-4-oxo-butyl}-3H-thieno[3,2-d]pyrimidin-4-one] are 420 nM, 0.49 nM, 4.7e-10 M and 3.9e-08 M.
In the case of `COc1ccc(C(=O)C2CCN(C(=O)CCCc3nn4cccc4c(=O)[nH]3)CC2)cc1F` [Compound C136, 2-{4-[4-(3-Fluoro-4-methoxy-benzoyl)-piperidin-1-yl]-4-oxo-butyl}-3H-pyrrolo[2,1-f][1,2,4]triazin-4-one], the IC50 is 3100 nM against PARP-1, 0.25 nM on TNKS1 and 2.1e-10 M on TNKS2. Moreover, in the test on Tankyrases, the EC50 came to 3.6e-09 M.
For the molecule `N#Cc1cc(C2CCN(C(=O)CCCc3nn4cccc4c(=O)[nH]3)CC2)cnc1N` [Compound C138, 6-Amino-1′-[4-(4-oxo-3,4-dihydro-pyrrolo[2,1-f][1,2,4]triazin-2-yl)-butyryl]-1′,2′,3′,4′,5′,6′-hexahydro-[3,4′]bipyridinyl-5-carbonitrile], the IC50 against PARP-1 worked out at 3200 nM; at TNKS1, 2.2 nM; on TNKS2, 2.6e-09 M. Moreover, in the test on Tankyrases, the EC50 worked out at 5.2e-08 M.
As for `Nc1ncc(C2CCN(C(=O)CCCc3nn4cccc4c(=O)[nH]3)CC2)cc1-c1ncccn1` [Compound C139, 2-[4-(6-Amino-5-pyrimidin-2-yl-3′,4′,5′,6′-tetrahydro-2′H-[3,4′]bipyridinyl-1′-yl)-4-oxo-butyl]-3H-pyrrolo[2,1-f][1,2,4]triazin-4-one], the IC50 at PARP-1 turned out to be 3200 nM; against TNKS1, 0.23 nM; on TNKS2 it was 2.6e-10 M. For the same molecule, the EC50 in the test on Tankyrases worked out at 3.4e-09 M.
As to `O=C(CCCc1nn2cccc2c(=O)[nH]1)N1CCC(c2nnc(-c3ccccc3)o2)CC1` [Compound C140, 2-{4-Oxo-4-[4-(5-phenyl-[1,3,4]oxadiazol-2-yl)-piperidin-1-yl]-butyl}-3H-pyrrolo[2,1-f][1,2,4]triazin-4-one], the IC50 was 3600 nM at PARP-1, 18 nM against TNKS1 and 1e-08 M on TNKS2. The EC50 with Tankyrases is 1e-07 M.
The corresponding values for `N#Cc1ccc(OC2CCN(C(=O)CCCc3nn4cccc4c(=O)[nH]3)CC2)cc1` [Compound C141, 4-{1-[4-(4-Oxo-3,4-dihydro-pyrrolo[2,1-f][1,2,4]triazin-2-yl)-butyryl]-piperidin-4-yloxy}-benzonitrile] are 2600 nM, 100 nM, 6.5e-08 M and 6.8e-07 M.

The values are drawn from patent US9809598B2 (Merck Patent GmbH, priority 2014, dated 2017).
